Measured values from the supplement of paper PMC10307832.

Experiments:
Experiment in all cases: relative viability (nuclei count vs DMSO), 5 days (fraction); higher = more cells survive
[1] = compound: C[As](C)SC[C@H](NC(=O)CC[C@H](N)C(=O)O)C(=O)NCC(=O)O [Darinaparsin] + C[C@@H](Oc1cc(-c2cnn(C3CCNCC3)c2)cnc1N)c1c(Cl)ccc(F)c1Cl [Crizotinib] (partner 1 µM)
Outline: (§1)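 Lung cancer cell lines were seeded in 1536-well plates and dosed by pin tool the next day, with either a single drug or a fixed anchor-drug dose combined with five library-drug doses (not always all listed) spaced in √10 steps. Five days later, one step fixed the cells and stained their nuclei (final 0.05% Triton X-100, 1% formaldehyde, 1 ug/ml Hoechst), and nuclei were counted on 4× images. Relative viability is the nuclei count in treated wells divided by the count in vehicle wells, and each value is the median of duplicate plates.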

AZ628 + Tozasertib = compound: CC1=C(C=C(C=C1)NC(=O)C2=CC(=CC=C2)C(C)(C)C#N)NC3=CC4=C(C=C3)N=CN(C4=O)C [AZ628] + Cc1cc(Nc2cc(N3CCN(C)CC3)nc(Sc3ccc(NC(=O)C4CC4)cc3)n2)n[nH]1 [Tozasertib] (partner 0.1 µM)
Outline: as §1

QS11 + OSI-027 = compound: C1CC2=C(C1)C=C(C=C2)OC3=NC(=C4C(=N3)N(C=N4)CC5=CC=C(C=C5)C6=CC=CC=C6)N[C@@H](CC7=CC=CC=C7)CO [QS11] + COc1cccc2cc(-c3nc([C@H]4CC[C@H](C(=O)O)CC4)n4ncnc(N)c34)[nH]c12 [OSI-027] (partner 0.5 µM)
Outline: as §1

[2] = compound: C[As](C)SC[C@H](NC(=O)CC[C@H](N)C(=O)O)C(=O)NCC(=O)O [Darinaparsin] + O=C(CCCCCCC(=O)Nc1ccccc1)NO [Vorinostat] (partner 1 µM)
Outline: as §1

Cell Line | relative viability ([1]; first compound 0.08 µM) | relative viability ([1]; first compound 0.8 µM) | relative viability ([1]; first compound 2.53 µM) | relative viability ([1]; first compound 8 µM) | relative viability (AZ628 + Tozasertib; first compound 0.08 µM) | relative viability (AZ628 + Tozasertib; first compound 0.253 µM) | relative viability (AZ628 + Tozasertib; first compound 0.8 µM) | relative viability (AZ628 + Tozasertib; first compound 2.53 µM) | relative viability (AZ628 + Tozasertib; first compound 8 µM) | relative viability (QS11 + OSI-027; first compound 0.08 µM) | relative viability (QS11 + OSI-027; first compound 0.253 µM) | relative viability (QS11 + OSI-027; first compound 0.8 µM) | relative viability (QS11 + OSI-027; first compound 2.53 µM) | relative viability (QS11 + OSI-027; first compound 8 µM) | relative viability ([2]; first compound 0.08 µM) | relative viability ([2]; first compound 0.8 µM) | relative viability ([2]; first compound 2.53 µM) | relative viability ([2]; first compound 8 µM)
NCI-H23 | 0.753 | 0.428 | 0.412 | 0.515 | 0.286 | 0.263 | 0.323 | 0.26 | 0.213 | 0.626 | 0.516 | 0.52 | 0.453 | 0.305 | 0.62 | 0.485 | 0.663 | 0.716
NCI-H322M | 1.02 | 1.06 | 0.753 | 1.03 | 0.468 | 0.497 | 0.459 | 0.474 | 0.404 | 0.549 | 0.607 | 0.636 | 0.687 | 0.732 | 1.08 | 0.865 | 0.768 | 0.899
NCI-H358 | 0.566 | 0.499 | 0.576 | 0.673 | 0.123 | 0.114 | 0.1 | 0.117 | 0.0782 | 0.774 | 0.854 | 0.888 | 0.849 | 1.01 | 0.744 | 0.636 | 0.594 | 0.745
NCI-H522 | – | – | – | – | 0.578 | 0.547 | 0.542 | 0.523 | 0.57 | 0.733 | 0.795 | 0.722 | 0.727 | 1.97 | 0.85 | 0.909 | 0.798 | 0.905
NCI-H1299 | 1.09 | 0.981 | 0.871 | 1.1 | – | – | – | – | – | – | – | – | – | – | – | – | – | –
NCI-H1395 | – | – | – | – | 0.814 | 0.809 | 0.753 | 0.742 | 0.681 | 0.603 | 0.718 | 0.626 | 0.735 | 0.637 | 0.813 | 0.722 | 0.582 | 0.589
NCI-H1563 | 0.903 | 0.768 | 0.87 | 0.874 | – | – | – | – | – | 0.67 | 0.775 | 0.741 | 0.745 | 0.693 | – | – | – | –
NCI-H1623 | – | – | – | – | 0.528 | 0.388 | 0.406 | 0.381 | 0.307 | 0.417 | 0.386 | 0.415 | 0.445 | 0.426 | – | – | – | –
NCI-H1648 | – | – | – | – | 0.624 | 0.615 | 0.613 | 0.539 | 0.427 | – | 0.26 | – | 0.275 | 0.247 | – | 0.301 | – | 0.56
NCI-H1703 | 1.45 | 0.859 | 0.483 | 0.607 | – | – | – | – | – | – | – | – | – | – | – | – | – | –
NCI-H1792 | 1.95 | 0.989 | 0.654 | 1.34 | – | – | – | – | – | 0.731 | 0.969 | 0.65 | 0.565 | 0.82 | – | – | – | –
NCI-H1793 | – | – | – | – | 0.488 | 0.335 | 0.372 | 0.264 | 0.18 | 0.248 | 0.27 | 0.277 | 0.341 | 0.332 | 0.653 | 0.731 | – | 0.911
NCI-H2342 | – | – | – | – | 0.616 | 0.529 | 0.673 | 0.514 | 0.471 | 0.643 | 0.703 | 0.611 | 0.663 | 0.636 | 0.876 | 0.721 | 0.734 | 0.828
SW 900 | – | – | – | – | 0.7 | 0.549 | 0.553 | 0.496 | 0.232 | 0.547 | 0.601 | 0.661 | 0.487 | 0.423 | 0.457 | – | 0.635 | 0.596
